Drawing on ChEMBL document CHEMBL4613209, “Quinolone hybrids and their anti-cancer activities: An overview” (Eur J Med Chem, 2019), this text covers IC50 for 17 compounds.

The structures appear in SMILES notation.

The test system of one assay is HL-60. Nature of the assay: Antiproliferative activity against human HL60 cells after 72 hrs by MTT assay. The assay is classed as functional, cell-based. As to conditions: HL-60, 72 h. (Tetrazolium dyes change colour on reduction, which living cells bring about.)
A further assay concerns A549. Nature of the assay: Antiproliferative activity against human A549 cells after 72 hrs by MTT assay. As to conditions: A549, 72 h. The assay is classed as functional, cell-based.
The subject of a further assay is PC-3. Nature of the assay: Cytotoxicity against human PC3 cells assessed as reduction in cell viability. The assay is classed as functional, cell-based.
A further assay concerns GES1. Nature of the assay: Cytotoxicity against human GES-1 cells assessed as reduction in cell viability. The assay is classed as cell-based.
In a further assay the test system is MGC-803. Nature of the assay: Cytotoxicity against human MGC803 cells assessed as reduction in cell viability. The assay is classed as functional, cell-based.
For the next assay, the system named is HepG2. Nature of the assay: Cytotoxicity against human HepG2 cells assessed as reduction in cell viability. The assay is classed as functional, cell-based.
Another assay relates to NCI-H460. Nature of the assay: Cytotoxicity against human NCI-H460 cells assessed as reduction in cell viability. The assay is classed as functional, cell-based.
Another assay relates to MCF7. Nature of the assay: Cytotoxicity against human MCF7 cells assessed as reduction in cell viability. The assay is classed as functional, cell-based.
For another assay, the system named is SW-620. Nature of the assay: Cytotoxicity against human SW620 cells assessed as reduction in cell viability. The assay is classed as functional, cell-based.

In the case of `CCn1cc(C(=O)O)c(=O)c2cc(F)c(N3CCN(C(=N)NS(=O)(=O)c4ccccc4Cl)CC3)cc21`, the concentration for half-maximal inhibition (IC50) in the assay with HL-60 and with A549 was 32 to 79 nM throughout.

For the compound `C[C@H]1COc2c(N3CCN(C)CC3)c(F)cc3c(=O)c(-c4nnc(NC(=O)CCCCCCC(=O)O)s4)cn1c23`, the IC50 in the assay on PC-3 was 1100 to 14300 nM; in the assay with GES1 it was greater than 81500 nM; in the assay with MGC-803, 1100 to 14300 nM; with HepG2, 1100 to 14300 nM; in the assay with NCI-H460 it was 1100 to 14300 nM; with MCF7, 1100 to 14300 nM. For the same compound, the IC50 in the assay with SW-620 lay in the range of 1100 to 14300 nM.

`C[C@H]1COc2c(N3CCN(C)CC3)c(F)cc3c(=O)c(-c4nnc(NC(=O)CCCCCCCC(=O)Nc5ccccc5N)s4)cn1c23`: the IC50 with PC-3 is 46 to 203 nM; in the assay with GES1 it was greater than 81500 nM; in the assay with MGC-803, 46 to 203 nM; with HepG2, 46 to 203 nM; in the assay with NCI-H460, 46 to 203 nM; with MCF7, 46 to 203 nM. For the same compound, the concentration for half-maximal inhibition (IC50) in the assay with SW-620 lay in the range of 46 to 203 nM.

As for `N=C(NS(=O)(=O)c1cccc(Cl)c1)N1CCN(c2cc3c(cc2F)c(=O)c(C(=O)O)cn3C2CC2)CC1`, the IC50 in the assay with HL-60 and in the assay on A549 was 32 to 161 nM in each case.

As to `CCn1cc(C(=O)O)c(=O)c2cc(F)c(N3CCN(C(=N)NS(=O)(=O)c4cccc(Cl)c4)CC3)cc21`, the half-inhibitory concentration (IC50) in the assay with HL-60 and in the assay on A549 was 32 to 161 nM in each case.

Regarding `CCn1cc(C(=O)O)c(=O)c2cc(F)c(N3CCN(C(=N)NS(=O)(=O)c4ccccc4C(F)(F)F)CC3)cc21`, the IC50 with HL-60 and in the assay with A549 was 32 to 161 nM throughout.

Take `N=C(NS(=O)(=O)c1ccc(Cl)cc1)N1CCN(c2cc3c(cc2F)c(=O)c(C(=O)O)cn3C2CC2)CC1`: the half-inhibitory concentration (IC50) with HL-60 and in the assay with A549 was 32 to 161 nM each time.

For `C[C@H]1COc2c(N3CCN(C)CC3)c(F)cc3c(=O)c(-c4nnc(NC(=O)CCCCCCCC(=O)NO)s4)cn1c23`, the half-inhibitory concentration (IC50) was 19 to 127 nM in the assay on PC-3; greater than 81500 nM in the assay on GES1; 19 to 127 nM in the assay on MGC-803; 19 to 127 nM in the assay with HepG2; 19 to 127 nM in the assay with NCI-H460; 19 to 127 nM with MCF7. Further, the IC50 with SW-620 was 19 to 127 nM.

In the case of `CCn1cc(C(=O)O)c(=O)c2cc(F)c(N3CCN(C(=N)NS(=O)(=O)c4ccc(Cl)cc4)CC3)cc21`, the IC50 in the assay with HL-60 and in the assay on A549 was 32 to 161 nM each time.

For `C[C@H]1COc2c(N3CCN(C)CC3)c(F)cc3c(=O)c(-c4nnc(NC(=O)CCCC(=O)Nc5ccccc5N)s4)cn1c23`, the 50% inhibitory concentration (IC50) in the assay with PC-3 was 46 to 203 nM; with GES1, greater than 81500 nM; in the assay with MGC-803 it was 46 to 203 nM; in the assay with HepG2, 46 to 203 nM; in the assay with NCI-H460 it was 46 to 203 nM; in the assay on MCF7 it was 46 to 203 nM. In the assay on SW-620, the IC50 lay in the range of 46 to 203 nM.

Consider `C[C@H]1COc2c(N3CCN(C)CC3)c(F)cc3c(=O)c(-c4nnc(NC(=O)CCCCC(=O)O)s4)cn1c23`, for which the IC50 in the assay with PC-3 was 1100 to 14300 nM; in the assay with GES1, greater than 81500 nM; in the assay with MGC-803 it was 1100 to 14300 nM; in the assay on HepG2, 1100 to 14300 nM; in the assay on NCI-H460 it was 1100 to 14300 nM; in the assay on MCF7, 1100 to 14300 nM. The IC50 with SW-620 is 1100 to 14300 nM.

Turning to `C[C@H]1COc2c(N3CCN(C)CC3)c(F)cc3c(=O)c(-c4nnc(NC(=O)CCCC(=O)NO)s4)cn1c23`, the concentration for half-maximal inhibition (IC50) was 19 to 127 nM in the assay on PC-3; greater than 81500 nM in the assay on GES1; 19 to 127 nM in the assay on MGC-803; 19 to 127 nM in the assay with HepG2; 19 to 127 nM in the assay on NCI-H460; 19 to 127 nM in the assay with MCF7. Moreover, in the assay on SW-620, the concentration for half-maximal inhibition (IC50) fell in the range of 19 to 127 nM.

Take `C[C@H]1COc2c(N3CCN(C)CC3)c(F)cc3c(=O)c(-c4nnc(NC(=O)CCCCCCCC(=O)O)s4)cn1c23`: the IC50 was 1100 to 14300 nM in the assay on PC-3; greater than 81500 nM in the assay with GES1; 1100 to 14300 nM with MGC-803; 1100 to 14300 nM in the assay with HepG2; 1100 to 14300 nM with NCI-H460; 1100 to 14300 nM with MCF7. The IC50 in the assay with SW-620 was 1100 to 14300 nM.

For `N=C(NS(=O)(=O)c1ccccc1)N1CCN(c2cc3c(cc2F)c(=O)c(C(=O)O)cn3C2CC2)CC1`, the concentration for half-maximal inhibition (IC50) in the assay on HL-60 and in the assay with A549 was 32 to 161 nM each time.

`C[C@H]1COc2c(N3CCN(C)CC3)c(F)cc3c(=O)c(-c4nnc(NC(=O)CCCCC(=O)Nc5ccccc5N)s4)cn1c23`: the 50% inhibitory concentration (IC50) is 46 to 203 nM with PC-3; greater than 81500 nM in the assay on GES1; 46 to 203 nM with MGC-803; 46 to 203 nM with HepG2; 46 to 203 nM with NCI-H460; 46 to 203 nM with MCF7. In the assay on SW-620, the IC50 was 46 to 203 nM.

For `C[C@H]1COc2c(N3CCN(C)CC3)c(F)cc3c(=O)c(-c4nnc(NC(=O)CCCCCCC(=O)NO)s4)cn1c23`, the half-maximal inhibitory concentration (IC50) in the assay with PC-3 was 600 to 3100 nM; in the assay with GES1, greater than 100000 nM; in the assay with MGC-803 it was 600 to 3100 nM; in the assay on HepG2, 600 to 3100 nM; in the assay on NCI-H460 it was 600 to 3100 nM; in the assay on MCF7 it was 600 to 3100 nM. Moreover, the half-inhibitory concentration (IC50) in the assay with SW-620 lay within 600 to 3100 nM.

As for `CCn1cc(C(=O)O)c(=O)c2cc(F)c(N3CCN(C(=N)NS(=O)(=O)c4ccc(C)cc4)CC3)cc21`, the half-maximal inhibitory concentration (IC50) in the assay with HL-60 and in the assay on A549 was 32 to 161 nM in each case.

One may read the IC50 as the concentration needed to halve the response being measured.
